Assay results reported in patent USRE39591E1, “6-O-substituted ketolides having antibacterial activity” (Abbott Laboratories, priority 1996, dated 2007).
Values after ≈ are worked out from the molar mass of the structure shown.

Tested on: up to 32 different microorganisms
Experiment: in vitro antibacterial activity (MIC), agar dilution on Brain Heart Infusion (BHI) agar with Steers replicator
Format: cell-based
Settings: unit assumed
How it was run: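 Erythromycin A served as the same-class reference for test-to-test comparability. Test compound was tested over twelve successive dilutions in BHI agar; plates were incubated 20 to 24 hours at 35°-37° C, with MIC taken as the lowest concentration showing no growth, slight haze, or sparse colonies.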

[1] = Candida albicans CCH 442 (code TT)
[2] = Enterococcus faecism ATCC 8043 (code II)
[3] = Escherichia coli DC-2 (code SS)
[4] = Escherichia coli JUHL (code QQ)
[5] = Haemophilis influenzae DILL AMP R (code WW)
[6] = Micrococcus luteus ATCC 4698 (code PP)
[7] = Micrococcus luteus ATCC 9341 (code OO)
[8] = Mycobacterium smegmatis ATCC 114 (code UU)
[9] = Nocardia Asteroides ATCC9970 (code VV)
[10] = Staphylococcus aureus 1775 (code GG)
[11] = Staphylococcus aureus A5177 (code BB)
[12] = Staphylococcus aureus A-5278 (code CC)
[13] = Staphylococcus aureus ATCC 6538P (code AA)
[14] = Staphylococcus aureus CMX 553 (code FF)
[15] = Staphylococcus aureus CMX 642A (code DD)
[16] = Staphylococcus aureus NCTC10649M (code EE)
[17] = Staphylococcus epidermidis 3519 (code HH)
[18] = Streptococcus Pneumonia 5649 (code ZZA)
[19] = Streptococcus Pneumonia 5979 (code ZZ)
[20] = Streptococcus Pneumonia ATCC6303 (code XX)
[21] = Streptococcus Pneumonia GYR 1171 (code YY)
[22] = Streptococcus agalactiae CMX 508 (code KK)
[23] = Streptococcus bovis A-5169 (code JJ)
[24] = Streptococcus pyogenes 930 (code MM)
[25] = Streptococcus pyogenes EES61 (code LL)
[26] = Streptococcus pyogenes PIU 2548 (code NN)

## CC[C@H]1OC(=O)[C@H](C)C(=O)[C@H](C)[C@@H](O[C@@H]2O[C@H](C)C[C@H](N(C)C)[C@H]2O)[C@@](C)(OCCCc2cnc3ccccc3c2)C[C@@H](C)C2=NCCN3C(=O)O[C@@]1(C)[C@H]3[C@H]2C [Example 171, Compound of Formula (VII): A, B, D, and E are H, R is —CH2CH2CH2-(3-quinolyl)]
[1]
  MIC: > 100 µg/mL
[2]
  MIC: 0.05 µg/mL
[3]
  MIC: 25 µg/mL
[4]
  MIC: 25 µg/mL
Escherichia coli SS (code RR)
  MIC: 0.39 µg/mL
[5]
  MIC: 2 µg/mL
[6]
  MIC: 0.39 µg/mL
[7]
  MIC: 0.01 µg/mL
[8]
  MIC: 0.78 µg/mL
[9]
  MIC: 0.05 µg/mL
[10]
  MIC: > 100 µg/mL
[11]
  MIC: 0.05 µg/mL
[12]
  MIC: > 100 µg/mL
[13]
  MIC: 0.1 µg/mL
[14]
  MIC: 0.05 µg/mL
[15]
  MIC: 0.05 µg/mL
[16]
  MIC: 0.02 µg/mL
[17]
  MIC: 0.1 µg/mL
[18]
  MIC: 1 µg/mL
[19]
  MIC: > 16 µg/mL
[20]
  MIC: 0.03 µg/mL
[21]
  MIC: 0.03 µg/mL
[22]
  MIC: 0.02 µg/mL
[23]
  MIC: ≤ 0.005 µg/mL
[24]
  MIC: 25 µg/mL
[25]
  MIC: ≤ 0.005 µg/mL
[26]
  MIC: 0.2 µg/mL

## CC[C@H]1OC(=O)[C@H](C)C(=O)[C@H](C)[C@@H](O[C@@H]2O[C@H](C)C[C@H](N(C)C)[C@H]2O)[C@@](C)(OCC=NOCc2ccc3ccccc3n2)C[C@@H](C)C(=O)[C@H](C)[C@H]2NC(=O)O[C@@]21C [Example 232, Compound of Formula (IX): L is CO, T is NH, R is —CH2CH═NOCH2(2-quinolyl)]
Organism code AA
  MIC: 0.1 µg/mL
Organism code BB
  MIC: 0.1 µg/mL
Organism code CC
  MIC: > 100 µg/mL
Organism code DD
  MIC: 0.2 µg/mL
Organism code EE
  MIC: 0.2 µg/mL
Organism code FF
  MIC: 0.1 µg/mL
Organism code GG
  MIC: > 100 µg/mL
Organism code HH
  MIC: 0.2 µg/mL
Organism code II
  MIC: 0.02 µg/mL
Organism code JJ
  MIC: 0.02 µg/mL
Organism code KK
  MIC: 0.02 µg/mL
Organism code LL
  MIC: 0.02 µg/mL
Organism code MM
  MIC: > 100 µg/mL
Organism code NN
  MIC: 0.2 µg/mL
Organism code OO
  MIC: 0.02 µg/mL
Organism code PP
  MIC: 0.2 µg/mL
Organism code QQ
  MIC: 25 µg/mL
Organism code RR
  MIC: 0.39 µg/mL
Organism code SS
  MIC: > 100 µg/mL
Organism code TT
  MIC: > 100 µg/mL
Organism code UU
  MIC: 0.39 µg/mL
Organism code VV
  MIC: 0.05 µg/mL
Organism code WW
  MIC: 2 µg/mL
Organism code XX
  MIC: 0.03 µg/mL
Organism code YY
  MIC: 0.03 µg/mL
Organism code ZZ
  MIC: > 128 µg/mL
Organism code ZZA
  MIC: 0.5 µg/mL

## CC[C@H]1OC(=O)[C@H](C)C(=O)[C@H](C)[C@@H](O[C@@H]2O[C@H](C)C[C@H](N(C)C)[C@H]2O)[C@@](C)(OCc2ccc3ccccc3c2)C[C@@H](C)C(=O)[C@H](C)[C@@H](O)[C@]1(C)O [Example 173]
[1]
  MIC: 100 µg/mL (≈ 140 µM)
[2]
  MIC: 1.56 µg/mL (≈ 2.19 µM)
[3]
  MIC: > 100 µg/mL
[4]
  MIC: > 100 µg/mL
Escherichia coli SS (code RR)
  MIC: 50 µg/mL (≈ 70 µM)
[5]
  MIC: 128 µg/mL (≈ 179 µM)
[6]
  MIC: 3.1 µg/mL (≈ 4.34 µM)
[7]
  MIC: 0.78 µg/mL (≈ 1.09 µM)
[8]
  MIC: 3.1 µg/mL (≈ 4.34 µM)
[9]
  MIC: 6.2 µg/mL (≈ 8.68 µM)
[10]
  MIC: 100 µg/mL (≈ 140 µM)
[11]
  MIC: 50 µg/mL (≈ 70 µM)
[12]
  MIC: 100 µg/mL (≈ 140 µM)
[13]
  MIC: 12.5 µg/mL (≈ 17.5 µM)
[14]
  MIC: 12.5 µg/mL (≈ 17.5 µM)
[15]
  MIC: 12.5 µg/mL (≈ 17.5 µM)
[16]
  MIC: 12.5 µg/mL (≈ 17.5 µM)
[17]
  MIC: 12.5 µg/mL (≈ 17.5 µM)
[18]
  MIC: 4 µg/mL (≈ 5.6 µM)
[19]
  MIC: 32 µg/mL (≈ 44.8 µM)
[20]
  MIC: 2 µg/mL (≈ 2.8 µM)
[21]
  MIC: 2 µg/mL (≈ 2.8 µM)
[22]
  MIC: 0.78 µg/mL (≈ 1.09 µM)
[23]
  MIC: 0.78 µg/mL (≈ 1.09 µM)
[24]
  MIC: 50 µg/mL (≈ 70 µM)
[25]
  MIC: 0.78 µg/mL (≈ 1.09 µM)
[26]
  MIC: 3.1 µg/mL (≈ 4.34 µM)
